{"source": "patent US12343326B2", "about": "“Psychoactive medicines and their use for treating psychiatric and neurological conditions and disorders” (Transcend Therapeutics, Inc., priority 2021, dated 2025)", "key": {"[1]": {"tested_on": "rats with reserpine-induced pain sensitivity", "experiment": "Reserpine-induced fibromyalgia model, von Frey test", "type": "in vivo, rat", "settings": "methylone 15 mg/kg IP, 30 min before testing, day 4 after reserpine", "protocol": "Reserpine (1 mg/kg/s.c.) is administered for 3 days to mimic chronic widespread pain and complex symptoms.\nIn this Example, male Sprague Dawley rats are tested in a behavioral model of FMA based on the protocol from Nakagura et al. (2009) Pain 146:26. This model uses three daily doses of reserpine (1 mg/kg, SC) or 0.5% acetic acid vehicle to reduce pain thresholds (i.e., increase pain perception) in the Von Frey Test (vFT, procedure outlined below).\nVon Frey Test (vFT) procedure: Increasing pain thresholds in this test are consistent with a reduction in pain perception. Prior to the start of dosing, rats are tested for their baseline mechanical pain threshold. For von Frey measurements, animals are placed into wire bottom cubicles with opaque Plexiglas walls, allowing access to the underside of their paws. Animals are habituated to this environment for at least 30 minutes before the start of the von Frey filament application. Static allodynia is measured using Semmes-Weinstein von Frey filaments (Stoelting, Wood Dale, IL). Mechanical allodynia is tested by touching the plantar surface of the animals' left and right hind paws with von Frey filaments which deliver a calibrated amount of force. Each von Frey filament is presented perpendicularly to the plantar surface for approximately 6 seconds of constant application in either ascending or descending strength in a modified up-and-down method (Chaplan et al. (1994) J Neurosci. Meth. 53:55). Stimulation is presented at intervals of several seconds, allowing for apparent resolution of any behavioral responses to previous stimuli. A positive response is noted if the paw is sharply withdrawn. Flinching immediately upon removal of the hair is also considered a positive response. […]\nVonFrey measurements: Animals were placed into wire bottom cubicles with opaque Plexiglas walls, allowing access to the underside of their paws. […] Static allodynia was measured using Semmes-Weinstein von Frey filaments (Stoelting, Wood Dale, IL). […] The average hindpaw thresholds were determined 60-min post-injection. […]"}, "[2]": {"settings": "cited from earlier work"}, "[3]": {"tested_on": "patients with PTSD or MDD", "experiment": "Methylone case series, Cohort 2: CGI-S/CGI-I efficacy and safety", "type": "in vivo, human", "protocol": "CGI-S scale was also evaluated in a subset of patients from Cohort 2 post-treatment. Cohort 2 was evaluated for any observed or reported safety events following a single dosing session. Clinical Global Improvement Scale\nClinical Global Impressions (CGI) scale includes 2 components: CGI-S (“severity”) and CGI-I (“improvement”).\nCohort 2 is composed of 28 patients with PTSD or MDD treated in an outpatient setting.\nOnly sessions that included methylone dosing were counted as dosing sessions.\nSingle sessions occurred for 8 of the 28 cases with no booster in two of these cases. In the remainder of the cases, multiple sessions occurred, and booster doses were used in all or some of the remaining patients ([…]) with multiple booster doses used in some or all of the sessions in 15 patients."}, "[4]": {"tested_on": "patients with a primary diagnosis of PTSD", "experiment": "Case series with long-term follow-up (Example 5): CGI-I, durability, safety", "type": "in vivo, human", "excerpt": "The patients were not given structured psychotherapy in conjunction with methylone treatment, which differs from recent studies of MDMA that emphasize the importance of a manualized psychedelic-assisted psychotherapy model.\nNo protected health information was disclosed, and no consent was obtained from patients for use of their archival data. Case narratives were systematically compiled from data collected as part of routine clinical work. Diagnoses were confirmed by an experienced clinician using semi-structured interviews. Baseline symptom severity was evaluated using the Clinical Global Impressions Scale-Severity (CGI-S). Symptom improvement was evaluated using the Clinical Global Impressions Scale-Improvement (CGI-I) following dosing. […] Because these case narratives were examined retrospectively from routine clinical care records, and not gathered prospectively in a research study, more specific validated rating scales for assessing PTSD symptoms were not available. Additionally, follow-up varied, with the length of follow-up ranging from one week (Case 2) to 15 years (Case 16).\nDosing summary: Methylone was administered orally. Other medications were not changed during methylone treatment. […] In several cases, treatment was continued, and, in some cases, the dose was further escalated in later sessions (see Table 5). Booster doses were included for 19 patients in one or more of the sessions. Starting doses were between 100 and 270 mg, and these as well as booster doses were selected based on clinical judgement."}, "C57BL/6J mice": {"tested_on": "C57BL/6J mice", "experiment": "Mouse head-twitch response (HTR) test", "type": "in vivo", "settings": "i.p., any dose tested, HTR measured for 10 minutes", "protocol": "Head twitch response (HTR) was evaluated using C57BL/6J mice (ages 7-10 weeks), Mice were ear tagged at least three days after arrival to the animal facility and allowed to rest for at least three days before behavioral testing. Small magnets (SuperMagnetMan—N45 magnet 3 mm diameter, 0.5 mm thickness) were glued to ear tags (Stoelting—La Pias Aluminum Ear Tags) at least two days before mice were ear tagged. The experimental setup was adapted from Gonzales-Maeso (de la Fuente Revenga et al., 2019) and Kwan (Jefferson et al., 2022; Savalia et al., 2021), including experimental apparatus and MATLAB code for analysis.\nDoses were randomly assigned, and age-matched controls were injected with vehicle and randomly interspersed with drug conditions. At least three animals per sex were used for each drug dose and condition. If animals were used in multiple HTR experiments, experimental sessions took place at least one week apart. Two animals were run at a time. Immediately after i.p. injection of psychedelic or entactogen drug, animals were placed in separate plastic boxes within a larger chamber (Home Depot—28 in. W×32 in. H×21.5 in. D), and HTR was measured for 10 minutes. A small lamp was placed in the back of the larger chamber, and a high-speed camera (Basler—Aca 1920-155 μm) was suspended from the ceiling to record video of the animals in the plastic boxes. […]"}, "[5]": {"settings": "Cohort 2, N = 28, highest observed"}}, "note": "Marks after values point to notes of the source that are not given here.", "data": [{"compound": "CNC(C)C(=O)c1ccc2c(c1)OCO2", "note": "(centres unmarked) [methylone, 3,4-methylenedioxy-N-methylcathinone]", "values": [{"measurement": "paw withdrawal thresholds (von Frey)", "setting": "[1]", "value": "significantly increased paw withdrawal thresholds"}, {"measurement": "time to peak brain and serum concentration", "setting": "[2]; rats, intraperitoneal administration", "value": "15 to 30", "unit": "min"}, {"measurement": "half-life shorter than MDMA", "setting": "[2]; relative to MDMA", "value": "> 50", "unit": "%"}, {"measurement": "Magnitude of Improvement: Number of cases with CGI-I 1", "setting": "[3]; [5]", "value": "11* cases"}, {"measurement": "Magnitude of Improvement: Number of cases with CGI-I 2", "setting": "[3]; [5]", "value": 13, "unit": "cases"}, {"measurement": "Magnitude of Improvement: Number of cases with CGI-I 3", "setting": "[3]; [5]", "value": 4, "unit": "cases"}, {"measurement": "Magnitude of Improvement: Number of cases with CGI-I 4", "setting": "[3]; [5]", "value": 0, "unit": "cases"}, {"measurement": "Magnitude of Improvement: Number of cases with CGI-I 5", "setting": "[3]; [5]", "value": 0, "unit": "cases"}, {"measurement": "Magnitude of Improvement: Number of cases with CGI-I 6", "setting": "[3]; [5]", "value": 0, "unit": "cases"}, {"measurement": "Magnitude of Improvement: Number of cases with CGI-I 7", "setting": "[3]; [5]", "value": 0, "unit": "cases"}, {"measurement": "number of patients with adverse events following methylone dosing", "setting": "[3]; Cohort 2, N = 28, all ≥65 years of age", "value": 3, "unit": "patients"}, {"measurement": "discontinuation due to adverse events", "setting": "[4]; 21 patients", "value": "no patients discontinued treatment due to adverse events"}, {"measurement": "total adverse events noted", "setting": "[4]; in three of the 21 patients", "value": "four"}, {"measurement": "patients achieving CGI-I of 1 (very much improved)", "setting": "[4]; of 21 patients", "value": 9, "unit": "patients"}, {"measurement": "patients achieving CGI-I of 2 (much improved)", "setting": "[4]; of 21 patients", "value": 8, "unit": "patients"}, {"measurement": "head-twitch behaviors", "setting": "C57BL/6J mice", "value": "no effect on head-twitch behaviors at any dose tested"}, {"measurement": "head-twitch behaviors", "setting": "C57BL/6J mice; listed as Methylone", "value": "no hallucinogenic activity"}]}]}
